Results from patent US20100184751A1, “HETEROCYCLIC COMPOUNDS FOR THE TREATMENT OF TUBERCULOSIS” (priority 2007, published 2010).
Counter-ions that a name gives are not always drawn. Like-named read-outs stand apart in the source and are kept apart here.

Tested on: Mycobacterium tuberculosis H37Rv
Assay: Mycobacterium tuberculosis H37Rv inhibition assay (resazurin MIC)
Format: cell-based
Conditions: ATCC 25618 / H37Rv, read-out: MIC value
[1] = 144 h, H37Rv strain (ATCC25618), Middlebrook 7H9, 37° C., six days, resazurin fluorescence after 48 hours
[2] = H37Rv strain (ATCC25618), Middlebrook 7H9, 37° C., six days, resazurin fluorescence after 48 hours

Row | SMILES | MIC (144 h) | MIC | MIC [1] | MIC [2]
1 | O=C1COc2ccc(CNC3CCN(CC4(F)Cn5c(=O)ccc6ncc(F)c4c65)CC3)nc2N1 (stereo not drawn) [Example 32, 3,4-Difluoro-4-[(4-{[(3-oxo-3,4-dihydro-2H-pyrido[3,2-b][1,4]oxazin-6-yl)methyl]amino}-1-piperidinyl)methyl]-4,5-dihydro-7H-pyrrolo[3,2,1-de]-1,5-naphthyridin-7-one Dihydrochloride (E1 Enantiomer)] | ≤ 4 µg/mL | ≤ 1.7 µg/mL |  | 
2 | O=c1ccc2ncc(F)c3c2n1C[C@@]3(O)CN1CCC(NCc2cnc3ccccc3c2)CC1 [Example 37, (4S)-3-fluoro-4-hydroxy-4-({4-[(3-quinolinylmethyl)amino]-1-piperidinyl}methyl)-4,5-dihydro-7H-pyrrolo[3,2,1-de]-1,5-naphthyridin-7-one] |  |  | ≤ 4 µg/mL | ≤ 1.7 µg/mL
3 | O=c1ccc2ncc(F)c3c2n1C[C@@]3(O)CN1CCC(NCc2ccc3nonc3c2)CC1 [Example 48, (4S)-4-({4-[(2,1,3-benzoxadiazol-5-ylmethyl)amino]-1-piperidinyl}methyl)-3-fluoro-4-hydroxy-4,5-dihydro-7H-pyrrolo[3,2,1-de]-1,5-naphthyridin-7-one] |  |  | ≤ 4 µg/mL | ≤ 1.7 µg/mL
4 | O=c1ccc2ncc(F)c3c2n1C[C@@]3(O)CN1CCC(NCc2ccc3c(c2)OCCO3)CC1 [Example 3A, (4S)-4-({4-[(2,3-Dihydro-1,4-benzodioxin-6-ylmethyl)amino]-1-piperidinyl}methyl)-3-fluoro-4-hydroxy-4,5-dihydro-7H-pyrrolo[3,2,1-de]-1,5-naphthyridin-7-one (E1 Enantiomer Series) Dihydrochloride] |  |  | ≤ 4 µg/mL | ≤ 1.7 µg/mL
5 | O=c1ccc2ncc(F)c3c2n1C[C@@]3(O)CN1CCC(NCc2ccc3ccccc3n2)CC1 [Example 51, (4S)-3-fluoro-4-hydroxy-4-({4-[(2-quinolinylmethyl)amino]-1-piperidinyl}methyl)-4,5-dihydro-7H-pyrrolo[3,2,1-de]-1,5-naphthyridin-7-one] |  |  | ≤ 4 µg/mL | 
6 | O=c1ccc2ncc(F)c3c2n1C[C@@]3(O)CN1CCC(NCc2cc3cc(F)cc(F)c3[nH]2)CC1 [Example 54, (4S)-4-[(4-{[(5,7-difluoro-1H-indol-2-yl)methyl]amino}-1-piperidinyl)methyl]-3-fluoro-4-hydroxy-4,5-dihydro-7H-pyrrolo[3,2,1-de]-1,5-naphthyridin-7-one] |  |  | ≤ 4 µg/mL | ≤ 1.7 µg/mL
7 | O=c1c(F)cc2ncc(F)c3c2n1C[C@@]3(O)CN1CCC(NCc2cc3c(cn2)OCCO3)CC1 [Example 20A, (4S)-4-({4-[(2,3-Dihydro[1,4]dioxino[2,3-c]pyridin-7-ylmethyl)amino]-1-piperidinyl}methyl)-3,8-difluoro-4-hydroxy-4,5-dihydro-7H-pyrrolo[3,2,1-de]-1,5-naphthyridin-7-one (E1 enantiomer series)] |  |  | ≤ 4 µg/mL | 
8 | O=c1ccc2ncc(Cl)c3c2n1CC3(O)CN1CCC(NCc2cc3c(cn2)OCS3)CC1 (racemic) [Example 15, (4R/S)-3-Chloro-4-hydroxy-4-({4-[([1,3]oxathiolo[5,4-c]pyridin-6-ylmethyl)amino]-1-piperidinyl}methyl)-4,5-dihydro-7H-pyrrolo[3,2,1-de]-1,5-naphthyridin-7-one Dihydrochloride] |  |  | ≤ 4 µg/mL | 
9 | O=C1CSc2ccc(CNC3CCN(CC4(O)Cn5c(=O)ccc6ncc(Cl)c4c65)CC3)nc2N1 (racemic) [Example 14, (4R/S)-3-Chloro-4-hydroxy-4-[(4-{[(3-oxo-3,4-dihydro-2H-pyrido[3,2-b][1,4]thiazin-6-yl)methyl]amino}-1-piperidinyl)methyl]-4,5-dihydro-7H-pyrrolo[3,2,1-de]-1,5-naphthyridin-7-one Dihydrochloride] |  | ≤ 1.7 µg/mL | ≤ 4 µg/mL | 
10 | O=c1ccc2ncc(F)c3c2n1CC3(F)CN1CCC(NCc2cc3c(nn2)OCCC3)CC1 (stereo not drawn) [Example 33, 4-({4-[(6,7-Dihydro-5H-pyrano[2,3-c]pyridazin-3-ylmethyl)amino]-1-piperidinyl}methyl)-3,4-difluoro-4,5-dihydro-7H-pyrrolo[3,2,1-de]-1,5-naphthyridin-7-one Dihyclrochloride (E1 Enantiomer)] |  |  | ≤ 4 µg/mL | 
11 | O=c1ccc2ncc(F)c3c2n1C[C@@]3(O)CN1CCC(NCc2ncc3c(n2)OCCO3)CC1 [Example 69, (4S)-4-({4-[6,7-dihydro[1,4]dioxino[2,3-d]pyrimidin-2-ylmethyl]amino]-1-piperidinyl}methyl)-3-fluoro-4-hydroxy-4,5-dihydro-7H-pyrrolo[3,2,1-de]-1,5-napthyridin-7-one (E1 Enantiomer Series) Dihydrochloride] |  |  | ≤ 4 µg/mL | 
12 | N#Cc1cc(CNC2CCN(C[C@]3(O)Cn4c(=O)ccc5ncc(F)c3c54)CC2)cc2c1OCC2 [Example 41, 5-{[(1-{[(4S)-3-fluoro-4-hydroxy-7-oxo-4,5-dihydro-7H-pyrrolo[3,2,1-de]-1,5-naphthyridin-4-yl]methyl}-4-piperidinyl)amino]methyl}-2,3-dihydro-1-benzofuran-7-carbonitrile] |  |  | ≤ 4 µg/mL | ≤ 1.7 µg/mL
13 | O=c1ccc2ncc(Cl)c3c2n1CC3(O)CN1CCC(NCc2cc3c(cn2)OCCC3)CC1 (racemic) [Example 13, (4R/S)-3-Chloro-4-({4-[(3,4-dihydro-2H-pyrano[2,3-c]pyridin-6-ylmethyl)amino]-1-piperidinyl}methyl)-4-hydroxy-4,5-dihydro-7H-pyrrolo[3,2,1-de]-1,5-naphthyridin-7-one Dihydrochloride] |  |  | ≤ 4 µg/mL | 
14 | O=c1ccc2ncc(F)c3c2n1C[C@@]3(O)CN1CCC(NCc2ccc3nsnc3c2)CC1 [Example 35, (4S)-4-({4-[(2,1,3-benzothiadiazol-5-ylmethyl)amino]-1-piperidinyl}methyl)-3-fluoro-4-hydroxy-4,5-dihydro-7H-pyrrolo[3,2,1-de]-1,5-naphthyridin-7-one] |  |  | ≤ 4 µg/mL | ≤ 1.7 µg/mL
15 | O=C1CSc2ccc(CNC3CCN(C[C@]4(O)Cn5c(=O)ccc6ncc(F)c4c65)CC3)nc2N1 [Example 6, (4S)-3-Fluoro-4-hydroxy-4-[(4-{[(3-oxo-3,4-dihydro-2H-pyrido[3,2-b][1,4]thiazin-6-yl)methyl]amino}-1-piperidinyl)methyl]-4,5-dihydro-7H-pyrrolo[3,2,1-de]-1,5-naphthyridin-7-one (E1 Enantiomer Series) Dihydrochloride] |  |  | ≤ 4 µg/mL | ≤ 1.7 µg/mL
16 | O=C1COc2cnc(CNC3CCN(C[C@]4(O)Cn5c(=O)ccc6ncc(F)c4c65)CC3)nc2N1 [Example 70, (4S)-3-fluoro-4-hydroxy-4-[(4-{[(7-oxo-6,7-dihydro-1H-pyrimido[5,4-b][1,4]oxazin-2-yl)methyl]amino}-1-piperidinyl)methyl]-4,5-dihydro-7H-pyrrolo[3,2,1-de]-1,5-naphthyridin-7-one Dihydrochloride] | ≤ 4 µg/mL | ≤ 1.7 µg/mL |  | 
17 | O=c1ccc2ncc(F)c3c2n1C[C@@]3(O)CN1CCC(NCc2cc3c(cn2)OCCO3)CC1 [Example 1, (4S)-4-({4-[(2,3-Dihydro[1,4]dioxino[2,3-c]pyridin-7-ylmethyl)amino]-1-piperidinyl}methyl)-3-fluoro-4-hydroxy-4,5-dihydro-7H-pyrrolo[3,2,1-de]-1,5-naphthyridin-7-one (E1 Enantiomer Series) Hydrochloride] |  |  | ≤ 4 µg/mL | 
18 | O=c1ccc2ncc(F)c3c2n1C[C@@]3(O)CN1CCC(NCc2ccc3cccc(O)c3n2)CC1 [Example 49, (4S)-3-fluoro-4-hydroxy-4-[(4-{[(8-hydroxy-2-quinolinyl)methyl]amino}-1-piperidinyl)methyl]-4,5-dihydro-7H-pyrrolo[3,2,1-de]-1,5-naphthyridin-7-one] |  |  | ≤ 4 µg/mL | 
19 | O=c1ccc2ncc(F)c3c2n1C[C@@]3(O)CN1CCC(NCc2ccc3nnsc3c2)CC1 [Example 53, (4S)-4-({4-[(1,2,3-benzothiadiazol-6-ylmethyl)amino]-1-piperidinyl}methyl)-3-fluoro-4-hydroxy-4,5-dihydro-7H-pyrrolo[3,2,1-de]-1,5-naphthyridin-7-one] |  |  | ≤ 4 µg/mL | ≤ 1.7 µg/mL
20 | O=c1ccc2ncc(F)c3c2n1C[C@@]3(O)CN1CCC(NCc2cc3c(cn2)SCCO3)CC1 [Example 23A, Dihydrochloride] |  |  | ≤ 4 µg/mL | ≤ 1.7 µg/mL
21 | O=c1ccc2ncc(F)c3c2n1C[C@@]3(O)CN1CCC(NCc2cc3c(cn2)OCS3)CC1 [Example 10B, (4S)-3-Fluoro-4-hydroxy-4-({4-[([1,3]oxathiolo[5,4-c]pyridin-6-ylmethyl)amino]-1-piperidinyl}methyl)-4,5-dihydro-7H-pyrrolo[3,2,1-de]-1,5-naphthyridin-7-one (E1 enantiomer series) hydrochloride] |  |  | ≤ 4 µg/mL | ≤ 1.7 µg/mL
22 | O=C1COc2cc(Cl)c(CNC3CCN(C[C@]4(O)Cn5c(=O)ccc6ncc(F)c4c65)CC3)nc2N1 [Example 40, (4S)-4-[(4-{[(7-chloro-3-oxo-3,4-dihydro-2H-pyrido[3,2-b][1,4]oxazin-6-yl)methyl]amino}-1-piperidinyl)methyl]-3-fluoro-4-hydroxy-4,5-dihydro-7H-pyrrolo[3,2,1-de]-1,5-naphthyridin-7-one] |  |  | ≤ 4 µg/mL | ≤ 1.7 µg/mL
23 | O=c1ccc2ncc(F)c3c2n1C[C@@]3(O)CN1CCC(NCc2ccc3snnc3c2)CC1 [Example 46, (4S)-4-({4-[(1,2,3-benzothiadiazol-5-ylmethyl)amino]-1-piperidinyl}methyl)-3-fluoro-4-hydroxy-4,5-dihydro-7H-pyrrolo[3,2,1-de]-1,5-naphthyridin-7-one] |  |  | ≤ 4 µg/mL | ≤ 1.7 µg/mL
24 | O=c1ccc2ncc(F)c3c2n1C[C@@]3(O)CN1CCC(NCc2cnc3snnc3c2)CC1 [Example 56, (4S)-3-fluoro-4-hydroxy-4-({4-[([1,2,3]thiadiazolo[5,4-b]pyridin-6-ylmethyl)amino]-1-piperidinyl}methyl)-4,5-dihydro-7H-pyrrolo[3,2,1-de]-1,5-naphthyridin-7-one] |  |  | ≤ 4 µg/mL | ≤ 1.7 µg/mL
